Experimental data: US20150374712A1, “Combinations of Dopamine D2 Receptor Blockade With Norepinephrine Reuptake Inhibition and with Norepinephrine Alpha 2 Receptor Blockade” (priority 2007, published 2015)
“Also recorded” adds a separate entry of the source.

Key:
[1] = test system: alcohol preferring P rat; assay: Initiation of alcohol drinking in alcohol-preferring P rats; type: in vivo
Protocol: (§1) All animals were given 24 hours/day access to 10-15% alcohol and water in two separate drinking bottles. Groups of animals (n=6-10/group) received daily injections of the specific drug or drug combination or vehicle for up to 4 weeks.

[2] = test system: Syrian golden hamster; assay: Chronic alcohol drinking in Syrian golden hamsters (free choice of alcohol and water); type: in vivo, Mesocricetus auratus
Protocol: as §1

[3] = test system: Syrian golden hamster; details: vs vehicle, Example 1 (prior art, FIG. 1, Green et al. 2004); cited from earlier work

## Cc1nc2n(c(=O)c1CCN1CCC(c3noc4cc(F)ccc34)CC1)CCCC2 [risperidone]
[1]; low dose of risperidone, Example 11, FIG. 11
  alcohol drinking (initiation of alcohol drinking): only a modest effect on alcohol drinking
[2]; hamster, low dose of risperidone, Examples 9-10, FIGS. 9, 10
  alcohol drinking (chronic drinking): only a modest effect on alcohol drinking

## CN1CCN(C2=Nc3cc(Cl)ccc3Nc3ccccc32)CC1 [clozapine]
[2]; Syrian golden hamster, chronic clozapine, Example 2, FIG. 2, unpublished data
  duration of clozapine's effect on alcohol drinking: at least 1 month

## O=C(CCCN1CCC(O)(c2ccc(Cl)cc2)CC1)c1ccc(F)cc1 [haloperidol]
[1]; low-dose haloperidol, Example 7, FIG. 7
  initiation of alcohol drinking: minimal ability to blunt the initiation of alcohol drinking
[3]
  chronic alcohol drinking: No dose of haloperidol tested had an effect on alcohol drinking; also recorded: very little effect on chronic alcohol drinking
